Results published in patent US20090270371A1, “QUINOLINE DERIVATIVES USEFUL IN THE TREATMENT OF MGLUR5 RECEPTOR-MEDIATED DISORDERS” (priority 2005, published 2009).

These molecules were tested against T1, rat mGluR5 receptors (Rattus norvegicus, UniProt P31424) (assay: mGluR5 receptor binding test, rat cerebro-cortical membrane preparation, [3H]-M-MPEP). Details: affinity for rat mGluR5 receptors; [3H]-M-MPEP (2 nM) radioligand.
T1 construct: rat cerebro-cortical membrane preparation was used; from tissue; host or cells: rat cerebral cortex membranes
Procedure, shortened: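 Radioligand binding used rat cerebro-cortical membranes with 2 nM [3H]-M-MPEP. Nonspecific binding was defined with 10 μM M-MPEP. The method follows a modification of a published procedure.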

T1 sequence (P31424 21-1203): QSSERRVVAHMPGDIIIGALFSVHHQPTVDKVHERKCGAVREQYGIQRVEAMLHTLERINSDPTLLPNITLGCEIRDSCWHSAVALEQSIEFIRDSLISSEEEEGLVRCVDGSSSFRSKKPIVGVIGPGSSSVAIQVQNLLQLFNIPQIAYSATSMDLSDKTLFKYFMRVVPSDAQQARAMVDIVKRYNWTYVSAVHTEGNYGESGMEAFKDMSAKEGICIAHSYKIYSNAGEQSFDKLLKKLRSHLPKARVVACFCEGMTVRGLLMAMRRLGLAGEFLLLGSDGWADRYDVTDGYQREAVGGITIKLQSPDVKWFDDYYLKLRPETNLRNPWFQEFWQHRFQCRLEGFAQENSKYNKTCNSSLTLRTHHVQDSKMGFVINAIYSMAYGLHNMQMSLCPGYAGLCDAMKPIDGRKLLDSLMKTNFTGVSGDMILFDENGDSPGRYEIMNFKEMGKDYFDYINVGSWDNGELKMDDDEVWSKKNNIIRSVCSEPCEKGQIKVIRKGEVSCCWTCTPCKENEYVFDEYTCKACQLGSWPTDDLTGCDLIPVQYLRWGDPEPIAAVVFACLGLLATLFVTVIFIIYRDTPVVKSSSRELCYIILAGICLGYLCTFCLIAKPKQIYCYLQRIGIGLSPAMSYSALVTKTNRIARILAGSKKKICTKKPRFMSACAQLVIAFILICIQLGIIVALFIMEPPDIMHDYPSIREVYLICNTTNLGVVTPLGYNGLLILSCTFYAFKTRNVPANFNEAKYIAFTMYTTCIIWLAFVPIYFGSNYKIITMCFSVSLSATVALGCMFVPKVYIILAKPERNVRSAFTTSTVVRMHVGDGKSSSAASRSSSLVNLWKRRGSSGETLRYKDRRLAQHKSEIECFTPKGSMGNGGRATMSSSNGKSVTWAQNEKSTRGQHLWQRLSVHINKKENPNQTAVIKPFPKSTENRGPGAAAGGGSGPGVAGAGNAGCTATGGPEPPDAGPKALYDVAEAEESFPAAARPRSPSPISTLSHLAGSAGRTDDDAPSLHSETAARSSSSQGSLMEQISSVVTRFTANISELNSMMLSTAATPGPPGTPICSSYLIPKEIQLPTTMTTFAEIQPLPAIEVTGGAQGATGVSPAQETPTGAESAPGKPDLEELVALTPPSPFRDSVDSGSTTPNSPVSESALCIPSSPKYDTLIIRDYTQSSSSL

SMILES	Ki [nM]
COc1cccc(S(=O)(=O)c2cnc3ccc(F)cc3c2N2CCOCC2)c1 [Compound 283]	> 500
O=S(=O)(c1cccc(Cl)c1)c1cnc2ccc(F)cc2c1N1CCOCC1 [Compound 285]	> 500
Cc1cc(C)cc(S(=O)(=O)c2cnc3ccc(F)cc3c2N2CCOCC2)c1 [Compound 289]	> 500
O=S(=O)(c1ccccc1)c1cnc2ccc(Cl)cc2c1N1CCOCC1 [Compound 291]	> 500
Cc1ccc(S(=O)(=O)c2cnc3ccc(Cl)cc3c2N2CCOCC2)cc1 [Compound 292]	< 200
O=S(=O)(c1cc(Cl)cc(Cl)c1)c1cnc2ccc(Cl)cc2c1N1CCOCC1 [Compound 293]	> 500
O=S(=O)(c1cc(F)cc(F)c1)c1cnc2ccc(Cl)cc2c1N1CCOCC1 [Compound 294]	> 500
O=S(=O)(c1ccc(Cl)cc1)c1cnc2ccc(Cl)cc2c1N1CCOCC1 [Compound 295]	> 500
COc1cccc(S(=O)(=O)c2cnc3ccc(Cl)cc3c2N2CCOCC2)c1 [Compound 296]	> 500
O=S(=O)(c1cccc(Cl)c1)c1cnc2ccc(Cl)cc2c1N1CCOCC1 [Compound 297]	> 500
O=S(=O)(c1ccc(Cl)c(Cl)c1)c1cnc2ccc(Cl)cc2c1N1CCOCC1 [Compound 298]	200 to 500
N#Cc1cccc(S(=O)(=O)c2cnc3ccc(Cl)cc3c2N2CCOCC2)c1 [Compound 299]	> 500
COc1ccc(S(=O)(=O)c2cnc3ccc(Cl)cc3c2N2CCOCC2)cc1Cl [Compound 301]	> 500
O=S(=O)(c1ccc(F)c(Cl)c1)c1cnc2ccc(Cl)cc2c1N1CCOCC1 [Compound 302]	> 500
O=S(=O)(c1ccccc1)c1cnc2cc(F)ccc2c1N1CCOCC1 [Compound 304]	> 500
O=S(=O)(c1cc(Cl)cc(Cl)c1)c1cnc2cc(F)ccc2c1N1CCOCC1 [Compound 308]	200 to 500
O=S(=O)(c1cc(F)cc(F)c1)c1cnc2cc(F)ccc2c1N1CCOCC1 [Compound 310]	> 500
N#Cc1cccc(S(=O)(=O)c2cnc3cc(F)ccc3c2N2CCOCC2)c1 [Compound 311]	200 to 500
COc1ccc(S(=O)(=O)c2cnc3cc(F)ccc3c2N2CCOCC2)cc1 [Compound 313]	> 500
Cc1cc(C)cc(S(=O)(=O)c2cnc3cc(F)ccc3c2N2CCOCC2)c1 [Compound 317]	200 to 500
O=S(=O)(c1cc(Cl)cc(Cl)c1)c1cnc2cc(Cl)ccc2c1N1CCOCC1 [Compound 318]	< 200
O=S(=O)(c1cc(F)cc(F)c1)c1cnc2cc(Cl)ccc2c1N1CCOCC1 [Compound 319]	200 to 500
N#Cc1cccc(S(=O)(=O)c2cnc3cc(Cl)ccc3c2N2CCOCC2)c1 [Compound 320]	200 to 500
O=S(=O)(c1ccc(F)cc1)c1cnc2cc(Cl)ccc2c1N1CCOCC1 [Compound 321]	> 500

SMILES	Ki [nM]
COc1ccc(S(=O)(=O)c2cnc3cc(Cl)ccc3c2N2CCOCC2)cc1 [Compound 322]	> 500
O=S(=O)(c1ccccc1)c1cnc2cc(Cl)ccc2c1N1CCOCC1 [Compound 323]	> 500
O=S(=O)(c1ccc(Cl)cc1)c1cnc2cc(Cl)ccc2c1N1CCOCC1 [Compound 324]	200 to 500
COc1cccc(S(=O)(=O)c2cnc3cc(Cl)ccc3c2N2CCOCC2)c1 [Compound 326]	200 to 500
O=S(=O)(c1cccc(Cl)c1)c1cnc2cc(Cl)ccc2c1N1CCOCC1 [Compound 328]	< 200
COc1ccc(S(=O)(=O)c2cnc3cc(Cl)ccc3c2N2CCOCC2)cc1Cl [Compound 330]	200 to 500
Cc1cc(C)cc(S(=O)(=O)c2cnc3cc(Cl)ccc3c2N2CCOCC2)c1 [Compound 333]	> 500
O=S(=O)(c1cc(Cl)cc(Cl)c1)c1cnc2c(F)cccc2c1N1CCOCC1 [Compound 335]	200 to 500
O=S(=O)(c1cc(F)cc(F)c1)c1cnc2c(F)cccc2c1N1CCOCC1 [Compound 336]	200 to 500
O=S(=O)(c1ccc(F)cc1)c1cnc2c(F)cccc2c1N1CCOCC1 [Compound 337]	> 500
COc1ccc(S(=O)(=O)c2cnc3c(F)cccc3c2N2CCOCC2)cc1 [Compound 338]	> 500
O=S(=O)(c1ccc(Cl)cc1)c1cnc2c(F)cccc2c1N1CCOCC1 [Compound 339]	200 to 500
O=S(=O)(c1cccc(F)c1)c1cnc2c(F)cccc2c1N1CCOCC1 [Compound 340]	> 500
Cc1ccc(S(=O)(=O)c2cnc3c(F)cccc3c2N2CCOCC2)cc1F [Compound 341]	200 to 500
Cc1ccc(S(=O)(=O)c2cnc3c(F)cccc3c2N2CCOCC2)cc1 [Compound 342]	> 500
O=S(=O)(c1ccc(F)c(F)c1)c1cnc2c(F)cccc2c1N1CCOCC1 [Compound 343]	200 to 500
O=S(=O)(c1ccc(F)c(Cl)c1)c1cnc2c(F)cccc2c1N1CCOCC1 [Compound 344]	< 200
O=S(=O)(c1ccc(Cl)c(Cl)c1)c1cnc2c(F)cccc2c1N1CCOCC1 [Compound 345]	< 200
N#Cc1ccc2ncc(S(=O)(=O)c3ccc(F)cc3)c(N3CCOCC3)c2c1 [Compound 346]	200 to 500
O=S(=O)(c1ccc(Cl)cc1)c1cnc2c(Cl)ccc(Cl)c2c1N1CCOCC1 [Compound 347]	200 to 500
O=S(=O)(c1ccc(Cl)cc1)c1cnc2ccc(F)cc2c1N1CCC(F)(F)CC1 [Compound 348]	200 to 500
CC1CCN(c2c(S(=O)(=O)c3ccc(F)c(Cl)c3)cnc3ccc(F)cc23)CC1 [Compound 349]	200 to 500
O=S(=O)(c1ccc(F)cc1)c1cnc2cc(Cl)ccc2c1N1CCC(CO)CC1 [Compound 350]	200 to 500
O=S(=O)(c1cc(F)cc(F)c1)c1cnc2cc(Cl)ccc2c1N1CCC(CO)CC1 [Compound 351]	200 to 500

Next, values leading:

Ki [nM]	SMILES
> 500	COc1ccc(S(=O)(=O)c2cnc3ccc(F)cc3c2N2CCOCC2)cc1Cl [Compound 284]
200 to 500	O=S(=O)(c1ccc(Cl)c(Cl)c1)c1cnc2ccc(F)cc2c1N1CCOCC1 [Compound 286]
> 500	Cc1ccc(S(=O)(=O)c2cnc3ccc(F)cc3c2N2CCOCC2)cc1F [Compound 287]
200 to 500	Cc1ccc(S(=O)(=O)c2cnc3ccc(F)cc3c2N2CCOCC2)cc1Cl [Compound 288]
200 to 500	O=S(=O)(c1ccc(F)c(Cl)c1)c1cnc2ccc(F)cc2c1N1CCOCC1 [Compound 290]
200 to 500	Cc1ccc(S(=O)(=O)c2cnc3ccc(Cl)cc3c2N2CCOCC2)cc1Cl [Compound 300]
> 500	Cc1ccc(S(=O)(=O)c2cnc3cc(F)ccc3c2N2CCOCC2)cc1 [Compound 303]
> 500	O=S(=O)(c1ccc(Cl)cc1)c1cnc2cc(F)ccc2c1N1CCOCC1 [Compound 305]
200 to 500	COc1cccc(S(=O)(=O)c2cnc3cc(F)ccc3c2N2CCOCC2)c1 [Compound 306]
200 to 500	COc1ccc(S(=O)(=O)c2cnc3cc(F)ccc3c2N2CCOCC2)cc1Cl [Compound 307]
200 to 500	Cc1ccc(S(=O)(=O)c2cnc3cc(F)ccc3c2N2CCOCC2)cc1F [Compound 309]
< 200	Cc1ccc(S(=O)(=O)c2cnc3cc(F)ccc3c2N2CCOCC2)cc1Cl [Compound 312]
200 to 500	Cc1ccc(S(=O)(=O)c2cnc3cc(F)ccc3c2N2CCOCC2)cc1C [Compound 314]
200 to 500	O=S(=O)(c1ccc(F)c(F)c1)c1cnc2cc(F)ccc2c1N1CCOCC1 [Compound 315]
< 200	O=S(=O)(c1ccc(Cl)c(Cl)c1)c1cnc2cc(F)ccc2c1N1CCOCC1 [Compound 316]
> 500	O=S(=O)(c1cccc(F)c1)c1cnc2cc(Cl)ccc2c1N1CCOCC1 [Compound 325]
< 200	Cc1ccc(S(=O)(=O)c2cnc3cc(Cl)ccc3c2N2CCOCC2)cc1C [Compound 327]
< 200	Cc1ccc(S(=O)(=O)c2cnc3cc(Cl)ccc3c2N2CCOCC2)cc1Cl [Compound 329]
> 500	O=S(=O)(c1ccc(F)c(F)c1)c1cnc2cc(Cl)ccc2c1N1CCOCC1 [Compound 331]
< 200	O=S(=O)(c1ccc(Cl)c(Cl)c1)c1cnc2cc(Cl)ccc2c1N1CCOCC1 [Compound 332]
< 200	O=S(=O)(c1ccc(F)c(Cl)c1)c1cnc2cc(Cl)ccc2c1N1CCOCC1 [Compound 334]
